Laboratory results published in patent US12208105B2, “Methods for attenuating graft-versus-host disease and opportunistic infections” (priority 2018, dated 2025).

Key:
[1] = system: donor (eGFP+) cells in the spleen; test: Donor engraftment in host spleen by flow cytometry; assay type: in vivo, mouse; details: whole stem cell product incubated 15 μg/ml, transplant day +10
Procedure: Purified Tcons and TCD BM cells were obtained from B6 donors transgenic for enhanced green fluorescent protein (eGFP^+) and were mixed together prior to being incubated with cosalane or DMSO. The cells were subsequently administered to irradiated B6D2 recipients and both bone marrow and Tcon engraftment then determined by flow cytometry within the host spleen on transplant day +10. Donor derived cells were distinguished from residual host cells by virtue of their eGFP positivity.

[2] = BM plus Tcons incubated 15 μg/ml
[3] = Tcons incubated 10 μg/ml (13 μM) in saline alone, one hour

## CC(C)CCC[C@@H](C)[C@H]1CC[C@H]2[C@@H]3CC[C@H]4C[C@@H](CCC=C(c5cc(Cl)c(O)c(C(=O)O)c5)c5cc(Cl)c(O)c(C(=O)O)c5)CC[C@]4(C)[C@H]3CC[C@]12C [Cosalane, cosalane]
B6 into B6D2 aGVHD model; BM cells and Tcons incubated 15 μg/ml
  recipients surviving to the end of the study period, combined treatment: 100%
B6 into B6D2 aGVHD model; [2]
  delayed bone marrow failure: no clinical signs of delayed bone marrow failure
  group surviving to the end of the study observation period: 90%
B6 into B6D2 aGVHD model; [3]
  aGVHD scores: reduced aGVHD scores
  median survival times: improved median survival times
B6 into B6D2 aGVHD model; Tcons incubated 10 μg/ml in saline plus 1% albumin
  aGVHD: developed severe aGVHD similar to DMSO controls
B6 into B6D2 aGVHD model; Tcons incubated 15 μg/ml, BM DMSO
  survival, isolated treatment of donor Tcons: 100%
B6 into B6D2 aGVHD model; Tcons incubated 10, 20 or 30 μg/ml
  transplant outcomes, dose dependence: improved transplant outcomes with increasing dosages
B6 into B6D2 aGVHD model; mouse, in vivo
  aGVHD attenuation, whole stem product treated: attenuate aGVHD at least as well as what was observed previously with the isolated treatment of Tcons alone
  outcomes, isolated treatment of donor BM cells alone: did not significantly improve outcomes
[1]
  donor cell numbers in the spleen: did not produce any differences in donor monocyte, neutrophil, T cell, or B cell numbers
